Laboratory results from ChEMBL document CHEMBL1130920, “The structure-activity relationships of a series of suicide inhibitors of phospholipase A2” (Bioorg Med Chem Lett, 1998).

Assay: Compound was tested for the inhibitory activity against cobra venom PLA2 (Naja naja atra) by using the Dole assay

| Structure (SMILES) | Activity (nM min-1 mg-1) |
| --- | --- |
| [O-][S+](c1ccc(O)cc1)C(F)(F)F (centres undefined) | 2 |
| O=S(=O)(c1ccc(O)cc1)C(F)(F)F | 11.9 |
| O=[N+]([O-])c1ccc(O)cc1 | 2.5 |
| CS(=O)(=O)c1ccc(O)cc1 | 11.1 |
